# Experimental data as given in patent US20210255167A1, “COMPOSITIONS AND METHODS FOR ASSESSING TOXICITY USING DYNAMIC BH3 PROFILING” (Dana-Farber Cancer Institute, Inc., priority 2015, published 2021).
# Test system: adult mouse hepatocytes
# Excerpt: In some aspects, methods provided herein relate to determining the toxicity of an agent in a sample of cells. In some embodiments, the toxicity of the agent can be determined by determining a value for delta percent priming. As used herein, “delta percent priming” refers to the extent to which an agent shifts a cell closer to the threshold of apoptosis. In some embodiments, normalized values of MOMP (e.g., percent BH3 domain peptide-induced MOMP, or “% MOMP”) are used to determine a value for delta percent priming. In such embodiments, the value for delta percent priming can be calculated using the equation:
# Delta Percent Priming=(% MOMPTEST)−(% MOMPCONTROL),
# where “% MOMPTEST” represents the value for percent BH3 domain peptide-induced MOMP determined in a test aliquot (cells contacted with the agent); and “% MOMPCONTROL” represents the value for percent BH3 domain peptide-induced MOMP determined in a control aliquot (cells not contacted with the agent).
# Next, various drug compounds were tested to assess the extent of drug-induced increased cell death sensitivity in adult mouse hepatocytes. Freshly isolated adult mouse hepatocytes were treated with different drugs for 20 hours, and the loss of cytochrome c induced by a single concentration of the synthetic Bim BH3 peptide was subsequently assessed by immunofluorescence (FIGS. 5A-D). Increase in cell death sensitivity is indicated by loss of cytochrome c, which is quantified as an increase in apoptotic sensitivity (delta priming, FIG. 5E).
row,SMILES,apoptotic sensitivity (delta priming)
1,CC1(C)CCC(c2ccc(Cl)cc2)=C(CN2CCN(c3ccc(C(=O)NS(=O)(=O)c4ccc(N[C@H](CCN5CCOCC5)CSc5ccccc5)c(S(=O)(=O)C(F)(F)F)c4)cc3)CC2)C1 [Navitoclax],increase apoptotic sensitivity
2,C=CCNC1=C2C[C@@H](C)C[C@H](OC)[C@H](O)[C@@H](C)/C=C(\C)[C@H](OC(N)=O)[C@@H](OC)/C=C\C=C(/C)C(=O)NC(=CC1=O)C2=O [tanespimycin],increase apoptotic sensitivity
3,COc1cccc2c1C(=O)c1c(O)c3c(c(O)c1C2=O)C[C@@](O)(C(=O)CO)C[C@@H]3O[C@H]1C[C@H](N)[C@H](O)[C@H](C)O1 [doxorubicin],increase apoptotic sensitivity
